Patent publication US20110318741A1, “BIOMARKERS FOR THE TREATMENT OF PSORIASIS” (priority 2010, published 2011)

System: proinflammatory gene products in psoriasis lesional skin
Test: mRNA abundance of inflammatory molecules in skin biopsies by real-time RT-PCR, normalized to hARP
Format: in vivo, human
Settings: for IL-22/hARP: Gene Expression Median Change (%) / IL-2/hARP: Gene Expression Median Change (%) / p40/hARP: Gene Expression Median Change (%) / CD83/hARP: Gene Expression Median Change (%) / IFNγ/hARP: Gene Expression Median Change (%) / iNOS/hARP: Gene Expression Median Change (%) / DEFB4/hARP: Gene Expression Median Change (%) / IL-17A/hARP: Gene Expression Median Change (%) / CXCL9/hARP: Gene Expression Median Change (%) / MX1/hARP: Gene Expression Median Change (%) / TNFα/hARP: Gene Expression Median Change (%) / IL-8/hARP: Gene Expression Median Change (%) / IL-10/hARP: Gene Expression Median Change (%) / K16/hARP: Gene Expression Median Change (%) / p19/hARP: Gene Expression Median Change (%): 20 mg BID, subjects also with PASI values
Protocol: mRNA abundance for a variety of inflammatory molecules was measured by real-time RT-PCR and expression was normalized to the house-keeping gene HARP (human acidic ribosomal protein). Inflammatory markers assessed by mRNA levels included the chemokine CXCL9, beta-defensin (DEFB4), interferon-gamma, IL-10, IL-17a, IL-22, IL-8, keratin 16, MX-1, IL-12/23 p40, IL-23 p19, iNOS and TNF. These are inflammatory molecules produced by activated DC populations, Th1, Th17, Th22 T-cells and response genes to interferon (MX-1. CXCL9) or IL-17 (defensin). Keratin 16 was also measured by mRNA levels to assess the epidermal response by an alternate means.
The pharmacodynamic effects of (S)—N-(2-(1-(3-ethoxy-4-methoxyphenyl)-2-(methylsulfonyl)ethyl)-1,3-dioxoisoindolin-4-yl)acetamide were studied in skin biopsies from subjects treated with the compound in a phase 2, multi-center, open-label study evaluating the safety, tolerability, and efficacy of the compound in recalcitrant psoriasis vulgaris. Skin biopsies were taken from uninvolved and involved skin at baseline, and from involved skin after treatment with (S)—N-(2-(1-(3-ethoxy-4-methoxyphenyl)-2-(methylsulfonyl)ethyl)-1,3-dioxoisoindolin-4-yl)acetamide 20 mg BID after 4 and 12 weeks.
The expression of proinflammatory gene products known to be involved in the pathogenesis of psoriasis was measured by real-time polymerase chain reaction (RT-PCR). With regard to gene expression, there were reductions in iNOS and IL-12/IL-23 p40 mRNAs along with reductions in IL-17A and IL-22 mRNAs, indicating inhibition of the Th1, Th17, and Th22 pathways (FIG. 5). […] Normalized IL-17A mRNA levels were reduced by 49% at week 12 and normalized IL-22 mRNA levels were reduced by 100% at week 12. DEFB4, a defensin induced in keratinocytes by IL-17, was reduced by 55% in week 4 biopsies and by 82% in week 12 biopsies. IL-8, which is induced in keratinocytes by IL-17, was reduced by 76% in week 4 biopsies and by 66% in week 12 biopsies.

## CCOc1cc([C@@H](CS(C)(=O)=O)N2C(=O)c3cccc(NC(C)=O)c3C2=O)ccc1OC [(S)—N-(2-(1-(3-ethoxy-4-methoxyphenyl)-2-(methylsulfonyl)ethyl)-1,3-dioxoisoindolin-4-yl)acetamide]
Week 4, No. 10
  IL-22/hARP: Gene Expression Median Change (%): −74.4%
Week 4, No. 12
  IL-2/hARP: Gene Expression Median Change (%): 3.33%
Week 4, No. 13
  p40/hARP: Gene Expression Median Change (%): −100%
Week 4, No. 15
  CD83/hARP: Gene Expression Median Change (%): −12.4%
  IFNγ/hARP: Gene Expression Median Change (%): −38.2%
  iNOS/hARP: Gene Expression Median Change (%): −61.0%
Week 4, No. 16
  DEFB4/hARP: Gene Expression Median Change (%): −55.4%
  IL-17A/hARP: Gene Expression Median Change (%): −72.5%
Week 4, No. 17
  CXCL9/hARP: Gene Expression Median Change (%): −30.7%
  MX1/hARP: Gene Expression Median Change (%): −51.1%
  TNFα/hARP: Gene Expression Median Change (%): −13.0%
Week 4, No. 18
  IL-8/hARP: Gene Expression Median Change (%): −76.4%
  IL-10/hARP: Gene Expression Median Change (%): −49.1%
  K16/hARP: Gene Expression Median Change (%): −62.0%
  p19/hARP: Gene Expression Median Change (%): −53.4%
Week 4, 20 mg b.i.d.
  CXCL9 (MIG) mRNA: Median % change from baseline (normalized to hARP): −30.7%
  DEFB4 mRNA: Median % change from baseline (normalized to hARP): −55.4%
  IFN-g mRNA: Median % change from baseline (normalized to hARP): −38.2%
  IL-8 mRNA: Median % change from baseline (normalized to hARP): −76.4%
  IL-10 mRNA: Median % change from baseline (normalized to hARP): −49.1%
  IL-12/IL-23 p40 mRNA: Median % change from baseline (normalized to hARP): −100%
  IL-17A mRNA: Median % change from baseline (normalized to hARP): −72.5%
  IL-22 mRNA: Median % change from baseline (normalized to hARP): −74.4%
  IL-23p19 mRNA: Median % change from baseline (normalized to hARP): −53.4%
  K-16 mRNA: Median % change from baseline (normalized to hARP): −62.0%
  MX-1 mRNA: Median % change from baseline (normalized to hARP): −51.1%
  iNOS mRNA: Median % change from baseline (normalized to hARP): −61.0%
  median reduction in normalized MX-1 mRNA: 51%
  reduction of normalized iNOS mRNA expression: 61%
Week 12, No. 6
  IL-22/hARP: Gene Expression Median Change (%): −100%
Week 12, No. 7
  p40/hARP: Gene Expression Median Change (%): −51.5%
Week 12, No. 10
  DEFB4/hARP: Gene Expression Median Change (%): −82.0%
  IL-2/hARP: Gene Expression Median Change (%): −25.0%
  IL-17A/hARP: Gene Expression Median Change (%): −46.7%
Week 12, No. 11
  CD83/hARP: Gene Expression Median Change (%): 27.39%
  CXCL9/hARP: Gene Expression Median Change (%): −15.8%
  MX1/hARP: Gene Expression Median Change (%): −51.5%
  iNOS/hARP: Gene Expression Median Change (%): −100%
Week 12, No. 12
  IFNγ/hARP: Gene Expression Median Change (%): −15.3%
Week 12, No. 13
  TNFα/hARP: Gene Expression Median Change (%): −41.3%
Week 12, No. 14
  IL-8/hARP: Gene Expression Median Change (%): −79.2%
  IL-10/hARP: Gene Expression Median Change (%): −15.3%
  K16/hARP: Gene Expression Median Change (%): −82.5%
  p19/hARP: Gene Expression Median Change (%): −67.9%
Week 12, 20 mg b.i.d.
  CXCL9 (MIG) mRNA: Median % change from baseline (normalized to hARP): −36.4%
  DEFB4 mRNA: Median % change from baseline (normalized to hARP): −82.3%
  IFN-g mRNA: Median % change from baseline (normalized to hARP): −37.6%
  IL-8 mRNA: Median % change from baseline (normalized to hARP): −66.5%
  IL-10 mRNA: Median % change from baseline (normalized to hARP): −26.5%
  IL-12/IL-23 p40 mRNA: Median % change from baseline (normalized to hARP): −86.7%
  IL-17A mRNA: Median % change from baseline (normalized to hARP): −49.4%
  IL-22 mRNA: Median % change from baseline (normalized to hARP): −100%
  IL-23p19 mRNA: Median % change from baseline (normalized to hARP): −68.3%
  K-16 mRNA: Median % change from baseline (normalized to hARP): −78.6%
  MX-1 mRNA: Median % change from baseline (normalized to hARP): −52.6%
  iNOS mRNA: Median % change from baseline (normalized to hARP): −100%
  median reduction in K16 mRNA: 78%
  reduction in normalized MX-1 mRNA: 52%
